In patent US20050130232A1, “Methods of screening for compounds that modulate hormone receptor activity” (Allergan, Inc., priority 2001, published 2005):

What was measured:
[1] = target: protein kinase A activity associated with endogenous RXRα (Mus musculus, UniProt P28700); settings: 3T3-L1 adipocytes, 10^-7 M, vs vehicle-treated cells
Experimental: Kinase activity was determined in the immunoprecipitate using kemptide (LRRASLG; SEQ ID NO: 59) as a substrate. Samples 1,3: 0.1% DMSO (10 minutes).
Kinase activity in the immunoprecipitates was determined as described above using γ-ATP and synthetic peptide SEQ ID NO: 59.

[2] = target: T1, RXRα associated protein kinase (Homo sapiens, UniProt P19793); assay: In vitro phosphorylation of exogenous protein substrates by RXR-associated kinase; format: cell-based; settings: Flag-RXR transfected cells, 10^-7 M
T1 sequence (P19793 1-462): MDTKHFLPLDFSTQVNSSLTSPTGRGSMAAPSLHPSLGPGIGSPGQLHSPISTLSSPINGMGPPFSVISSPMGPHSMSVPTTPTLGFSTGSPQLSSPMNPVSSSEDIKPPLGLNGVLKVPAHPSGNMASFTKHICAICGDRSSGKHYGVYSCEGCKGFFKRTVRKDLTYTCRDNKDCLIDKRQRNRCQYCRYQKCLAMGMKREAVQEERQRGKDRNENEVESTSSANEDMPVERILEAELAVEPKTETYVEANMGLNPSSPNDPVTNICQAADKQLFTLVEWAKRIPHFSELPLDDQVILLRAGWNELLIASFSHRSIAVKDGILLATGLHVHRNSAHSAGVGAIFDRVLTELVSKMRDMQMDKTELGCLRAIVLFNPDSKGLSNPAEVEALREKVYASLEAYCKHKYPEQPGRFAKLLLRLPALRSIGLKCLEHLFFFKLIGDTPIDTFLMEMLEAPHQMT
Experimental: Total cell lysates were immunoprecipitated with anti-FLAG antibody (M2). Immunoprecipitated material was used for in vitro kinas reaction with γ-^32P-ATP alone or with addition of exogenous mixed histones or myelin basic protein (MBP). The phosphorylated proteins were separated on SDS-PAGE and detected by autoradiography.
After terminating the kinase reaction, the products were analyzed by SDS-PAGE.
Kinase reactions with purified proteins were performed essentially as described above for synthetic peptide substrates. Briefly, immunoprecipitated complexes were resuspended in kinase assay buffer with 2 μg myelin basic protein (Sigma) or histone-M (Roche), and kinase reactions initiated by addition of 50 μM [γ-^32P]ATP (10 μCi). The reaction mixtures were then incubated at 25° C. with occasional shaking for 20 minutes, and terminated by addition of sample buffer. SDS-PAGE analysis and autoradiography were used to visualize the results.

[3] = target: T2, RXRα phosphorylation by protein kinase A (Homo sapiens, UniProt P19793); assay: Phosphorylation of immunoprecipitated RXRα by purified PKA; format: biochemical; settings: cells incubated with 10^-7 M ligand
T2 construct: host or cells: HEK293
T2 sequence (P19793 1-462): T1 sequence (P19793 1-462)
Experimental: Left panel: Cells were immunoprecipitated with anti-FLAG antibody, and the immunoprecipitates analyzed by SDS-PAGE and blotting with anti-PKA antibody. Right panel: Cells were immunoprecipitated with anti-PKA antibody, and the immunoprecipitates analyzed by SDS-PAGE and blotting with anti-FLAG antibody. B. Phosphorylation of RXRα by PKA. […] PKA I and PKC I indicate inhibitors of PKA and PKC, respectively.
RXRα-containing immunoprecipitates prepared with anti-Flag antibody were incubated with purified catalytically active PKA (Upstate Biotechnology) and […]; in addition, protein kinase A inhibitor or protein kinase C inhibitor was added to some reactions as indicated. The kinase reaction products were analyzed by SDS-PAGE.

[4] = target: T3, RXRα (Homo sapiens, UniProt P19793); assay: In vivo metabolic labeling with [32P]orthophosphate of Flag-RXR transfected HEK 293 cells; format: cell-based; design: expressed in transfected cells; host or cells: HEK 293; settings: [32P]orthophosphate labeling, ligand 10 minutes
T3 sequence (P19793 1-462): T1 sequence (P19793 1-462)
Text: (A) AGN194204-dependent protein kinase activity in Flag-RXR immunocomplexes, which were immunoprecipitated from transfected cells using antibody against the “Flag” epitope tag fused to the RXR receptor. […] Total cell lysates were immunoprecipitated with anti-Flag antibody (M2). Aliquots of the immunocomplexes were used for the in vitro kinase reaction with [γ-^32P]ATP and separated on SDS-PAGE. Phosphorylated proteins were detected by autoradiography (top panel). Additional aliquots of the immunocomplexes were subjected to immunoblotting with polyclonal anti-RXR antisera (D20; bottom panel). (B) Phosphoamino acid analysis. Flag-RXR and the 160-kDa protein were phosphorylated in vitro and separated on SDS-PAGE as described above, then transferred onto PVDF membrane, detected by autoradiography, and cut out for hydrolysis with acid (6 N HCl). The phosphorylated amino acids and standards (P-Ser, P-Thr, and P-Tyr) were separated by thin-layer chromatography. Positions of the standards P-Ser, P-Thr, and P-Tyr were visualized by ninhydrin staining and are indicated by arrows. (C) In vivo metabolic labeling of transfected HEK 293 cells. […] Cells were washed with phosphate-free medium and starved for 90 minutes before incubation with [^32P]orthophosphate for another 4 hours. […] Phosphorylated proteins were detected by autoradiography. […]

Sequence of protein kinase A activity associated with endogenous RXRα (P28700 whole entry): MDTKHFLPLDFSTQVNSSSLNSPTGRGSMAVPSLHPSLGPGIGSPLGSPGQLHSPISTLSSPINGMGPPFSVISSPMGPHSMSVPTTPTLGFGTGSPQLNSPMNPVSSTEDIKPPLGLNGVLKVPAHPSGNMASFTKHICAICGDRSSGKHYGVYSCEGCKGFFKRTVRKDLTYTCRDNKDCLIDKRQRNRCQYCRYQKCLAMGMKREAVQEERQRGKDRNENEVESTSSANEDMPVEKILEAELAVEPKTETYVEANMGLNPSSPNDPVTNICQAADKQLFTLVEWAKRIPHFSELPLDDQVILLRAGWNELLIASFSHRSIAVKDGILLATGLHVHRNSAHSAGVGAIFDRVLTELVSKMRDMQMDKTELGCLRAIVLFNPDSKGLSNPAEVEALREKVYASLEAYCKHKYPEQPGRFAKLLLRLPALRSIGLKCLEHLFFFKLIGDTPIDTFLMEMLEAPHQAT

CC(/C=C/[C@@H]1C[C@]1(C)c1ccc2c(c1)C(C)(C)CCC2(C)C)=C\C(=O)O [AGN194204]
PKA activity associated with endogenous RXRα [1]: increased about two-fold
in vitro phosphorylation of histone-M [2]: increased
in vitro phosphorylation of myelin basic protein (MBP) [2]: dramatically increased
extent of RXRα phosphorylation by purified PKA [3]: increased
in vivo phosphorylation of RXRα [4]: stimulated
